The NIST ThermoML archive (doi:10.1021/je900596d)
Numbers after ± are expanded uncertainties.

Settings: 343.18 K, Liquid, Vibrating tube method

FC(F)=C(F)C(F)(F)F [hexafluoropropene]
mass density (2323.3 kPa): 1027.29 ± 1.1 kg/m3
mass density (2331.8 kPa): 1027.71 ± 1.1 kg/m3
mass density (2340.3 kPa): 1028.3 ± 1.1 kg/m3
mass density (2348.6 kPa): 1028.71 ± 1.1 kg/m3
mass density (2357.9 kPa): 1029.39 ± 1.1 kg/m3
mass density (2367.9 kPa): 1029.94 ± 1.1 kg/m3
mass density (2376.2 kPa): 1030.38 ± 1.1 kg/m3
mass density (2386.7 kPa): 1030.85 ± 1.1 kg/m3
mass density (2396.9 kPa): 1031.35 ± 1.1 kg/m3
mass density (2403.7 kPa): 1031.5 ± 1.1 kg/m3
mass density (2413.7 kPa): 1032.28 ± 1.1 kg/m3
mass density (2426.4 kPa): 1032.67 ± 1.2 kg/m3
mass density (2437.3 kPa): 1033.33 ± 1.2 kg/m3
mass density (2447 kPa): 1034.04 ± 1.2 kg/m3
mass density (2457.9 kPa): 1034.52 ± 1.2 kg/m3
mass density (2464 kPa): 1034.92 ± 1.2 kg/m3
mass density (2470.6 kPa): 1035.47 ± 1.2 kg/m3
mass density (2480.5 kPa): 1035.86 ± 1.2 kg/m3
mass density (2486.7 kPa): 1036.28 ± 1.1 kg/m3
mass density (2497.1 kPa): 1037.07 ± 1.1 kg/m3
mass density (2503.3 kPa): 1037.46 ± 1.1 kg/m3
mass density (2522.8 kPa): 1038.69 ± 1.1 kg/m3
mass density (2540.4 kPa): 1039.48 ± 1.1 kg/m3
mass density (2556.8 kPa): 1040.31 ± 1.1 kg/m3
mass density (2578.1 kPa): 1041.52 ± 1.1 kg/m3
mass density (2596.9 kPa): 1042.44 ± 1.1 kg/m3
mass density (2616.9 kPa): 1043.45 ± 1.1 kg/m3
mass density (2632.9 kPa): 1044.34 ± 1.1 kg/m3
mass density (2650.6 kPa): 1045.42 ± 1.1 kg/m3
mass density (2671.6 kPa): 1046.57 ± 1.1 kg/m3
mass density (2693 kPa): 1047.89 ± 1.1 kg/m3
mass density (2710.6 kPa): 1048.77 ± 1.1 kg/m3
mass density (2730.2 kPa): 1049.48 ± 1.1 kg/m3
mass density (2747.6 kPa): 1050.19 ± 1.1 kg/m3
mass density (2764.4 kPa): 1050.73 ± 1.1 kg/m3
mass density (2782.1 kPa): 1051.54 ± 1.1 kg/m3
mass density (2799.6 kPa): 1052.3 ± 1.1 kg/m3
mass density (2815.7 kPa): 1053.03 ± 1.1 kg/m3
mass density (2831.9 kPa): 1053.99 ± 1.1 kg/m3
mass density (2852.2 kPa): 1055 ± 1.1 kg/m3
mass density (2887.1 kPa): 1056.99 ± 1.1 kg/m3
mass density (2909.8 kPa): 1058.07 ± 1.1 kg/m3
mass density (2930.4 kPa): 1058.89 ± 1.1 kg/m3
mass density (2950.3 kPa): 1059.55 ± 1.1 kg/m3
mass density (2967.4 kPa): 1060.2 ± 1.1 kg/m3
mass density (2986 kPa): 1061.16 ± 1.1 kg/m3
mass density (3013.7 kPa): 1062.17 ± 1.1 kg/m3
mass density (3046.6 kPa): 1063.75 ± 1.1 kg/m3
mass density (3078.2 kPa): 1064.77 ± 1.1 kg/m3
mass density (3103.6 kPa): 1065.88 ± 1.1 kg/m3
mass density (3134.8 kPa): 1067.08 ± 1.1 kg/m3
mass density (3168.5 kPa): 1068.48 ± 1.1 kg/m3
mass density (3201.9 kPa): 1069.74 ± 1.1 kg/m3
mass density (3235.7 kPa): 1071.04 ± 1.1 kg/m3
mass density (3266.7 kPa): 1072.23 ± 1.1 kg/m3
mass density (3300.3 kPa): 1073.66 ± 1.1 kg/m3
mass density (3332 kPa): 1075.03 ± 1.1 kg/m3
mass density (3361.4 kPa): 1076.36 ± 1.1 kg/m3
mass density (3394.9 kPa): 1077.6 ± 1.1 kg/m3
mass density (3430.3 kPa): 1078.63 ± 1.1 kg/m3
mass density (3463.3 kPa): 1079.82 ± 1.1 kg/m3
mass density (3496.3 kPa): 1081.01 ± 1.1 kg/m3
mass density (3518.3 kPa): 1081.82 ± 1.2 kg/m3
mass density (3550.7 kPa): 1083.01 ± 1.1 kg/m3
mass density (3586.6 kPa): 1084.11 ± 1.2 kg/m3
mass density (3619.2 kPa): 1085.32 ± 1.1 kg/m3
mass density (3651.4 kPa): 1086.39 ± 1.2 kg/m3
mass density (3686 kPa): 1087.66 ± 1.1 kg/m3
mass density (3728.2 kPa): 1089.03 ± 1.1 kg/m3
mass density (3764.5 kPa): 1090.25 ± 1.1 kg/m3
mass density (3805.5 kPa): 1091.78 ± 1.1 kg/m3
mass density (3846.6 kPa): 1092.95 ± 1.1 kg/m3
mass density (3882.5 kPa): 1093.89 ± 1.1 kg/m3
mass density (3923.8 kPa): 1095.4 ± 1.2 kg/m3
mass density (3956.8 kPa): 1096.28 ± 1.1 kg/m3
mass density (3999.1 kPa): 1097.44 ± 1.1 kg/m3
mass density (4049.2 kPa): 1099.28 ± 1.1 kg/m3
mass density (4092.3 kPa): 1100.59 ± 1.1 kg/m3
mass density (4134.3 kPa): 1101.91 ± 1.1 kg/m3
mass density (4183.8 kPa): 1102.89 ± 1.1 kg/m3
mass density (4226.9 kPa): 1104.11 ± 1.1 kg/m3
mass density (4279.1 kPa): 1105.63 ± 1.1 kg/m3
mass density (4326.3 kPa): 1106.67 ± 1.1 kg/m3
mass density (4369.2 kPa): 1107.87 ± 1.2 kg/m3
mass density (4410.8 kPa): 1109.1 ± 1.2 kg/m3
mass density (4451.8 kPa): 1110.42 ± 1.1 kg/m3
mass density (4504 kPa): 1111.78 ± 1.1 kg/m3
mass density (4556.4 kPa): 1112.8 ± 1.2 kg/m3
mass density (4599.1 kPa): 1114.05 ± 1.2 kg/m3
mass density (4697.6 kPa): 1116.51 ± 1.1 kg/m3
mass density (4742.5 kPa): 1117.74 ± 1.2 kg/m3
mass density (4786.3 kPa): 1118.99 ± 1.2 kg/m3
mass density (4833.9 kPa): 1120.08 ± 1.1 kg/m3
mass density (4887.4 kPa): 1121.18 ± 1.1 kg/m3
mass density (4933.1 kPa): 1122.24 ± 1.1 kg/m3
mass density (4985.1 kPa): 1123.76 ± 1.2 kg/m3
mass density (5029 kPa): 1124.72 ± 1.2 kg/m3
mass density (5073.9 kPa): 1125.85 ± 1.1 kg/m3
mass density (5132.4 kPa): 1127.18 ± 1.2 kg/m3
mass density (5174 kPa): 1128.12 ± 1.2 kg/m3
mass density (5238.1 kPa): 1129.48 ± 1.2 kg/m3
mass density (5301.9 kPa): 1130.82 ± 1.2 kg/m3
mass density (5346.6 kPa): 1131.66 ± 1.2 kg/m3
mass density (5387.9 kPa): 1132.67 ± 1.2 kg/m3
mass density (5429.7 kPa): 1133.71 ± 1.2 kg/m3
mass density (5474 kPa): 1134.83 ± 1.2 kg/m3
mass density (5517.7 kPa): 1135.51 ± 1.2 kg/m3
mass density (5596.3 kPa): 1137.23 ± 1.2 kg/m3
mass density (5658.9 kPa): 1138.61 ± 1.2 kg/m3
mass density (5702.1 kPa): 1139.38 ± 1.2 kg/m3
mass density (5743.1 kPa): 1140.46 ± 1.2 kg/m3
mass density (5803.5 kPa): 1141.76 ± 1.2 kg/m3
mass density (5846.3 kPa): 1142.59 ± 1.2 kg/m3
mass density (5891.3 kPa): 1143.58 ± 1.2 kg/m3
mass density (5933.5 kPa): 1144.39 ± 1.2 kg/m3
mass density (5995 kPa): 1145.68 ± 1.2 kg/m3
mass density (6036 kPa): 1146.23 ± 1.2 kg/m3
mass density (6160 kPa): 1148.79 ± 1.2 kg/m3
mass density (6218.2 kPa): 1149.66 ± 1.2 kg/m3
mass density (6324.7 kPa): 1151.65 ± 1.2 kg/m3
mass density (6365.2 kPa): 1152.43 ± 1.2 kg/m3
mass density (6407.3 kPa): 1153.32 ± 1.2 kg/m3
mass density (6470.4 kPa): 1154.32 ± 1.2 kg/m3
mass density (6550 kPa): 1155.81 ± 1.2 kg/m3
mass density (6660.8 kPa): 1157.92 ± 1.2 kg/m3
mass density (6725.9 kPa): 1159.01 ± 1.2 kg/m3
mass density (6839.7 kPa): 1161.35 ± 1.2 kg/m3
mass density (6887 kPa): 1162.02 ± 1.2 kg/m3
mass density (6930.3 kPa): 1162.69 ± 1.2 kg/m3
mass density (6976.6 kPa): 1163.25 ± 1.2 kg/m3
mass density (7038.7 kPa): 1164.35 ± 1.2 kg/m3
mass density (7080.9 kPa): 1165.18 ± 1.2 kg/m3
mass density (7123.3 kPa): 1165.76 ± 1.2 kg/m3
